In the Kinase Knowledgebase extract (Sharma et al. 2016):

Molecular target: EGFR (human) (UniProt P00533)
Assay: not given

Chain of EGFR (human) (P00533 whole entry, looked up): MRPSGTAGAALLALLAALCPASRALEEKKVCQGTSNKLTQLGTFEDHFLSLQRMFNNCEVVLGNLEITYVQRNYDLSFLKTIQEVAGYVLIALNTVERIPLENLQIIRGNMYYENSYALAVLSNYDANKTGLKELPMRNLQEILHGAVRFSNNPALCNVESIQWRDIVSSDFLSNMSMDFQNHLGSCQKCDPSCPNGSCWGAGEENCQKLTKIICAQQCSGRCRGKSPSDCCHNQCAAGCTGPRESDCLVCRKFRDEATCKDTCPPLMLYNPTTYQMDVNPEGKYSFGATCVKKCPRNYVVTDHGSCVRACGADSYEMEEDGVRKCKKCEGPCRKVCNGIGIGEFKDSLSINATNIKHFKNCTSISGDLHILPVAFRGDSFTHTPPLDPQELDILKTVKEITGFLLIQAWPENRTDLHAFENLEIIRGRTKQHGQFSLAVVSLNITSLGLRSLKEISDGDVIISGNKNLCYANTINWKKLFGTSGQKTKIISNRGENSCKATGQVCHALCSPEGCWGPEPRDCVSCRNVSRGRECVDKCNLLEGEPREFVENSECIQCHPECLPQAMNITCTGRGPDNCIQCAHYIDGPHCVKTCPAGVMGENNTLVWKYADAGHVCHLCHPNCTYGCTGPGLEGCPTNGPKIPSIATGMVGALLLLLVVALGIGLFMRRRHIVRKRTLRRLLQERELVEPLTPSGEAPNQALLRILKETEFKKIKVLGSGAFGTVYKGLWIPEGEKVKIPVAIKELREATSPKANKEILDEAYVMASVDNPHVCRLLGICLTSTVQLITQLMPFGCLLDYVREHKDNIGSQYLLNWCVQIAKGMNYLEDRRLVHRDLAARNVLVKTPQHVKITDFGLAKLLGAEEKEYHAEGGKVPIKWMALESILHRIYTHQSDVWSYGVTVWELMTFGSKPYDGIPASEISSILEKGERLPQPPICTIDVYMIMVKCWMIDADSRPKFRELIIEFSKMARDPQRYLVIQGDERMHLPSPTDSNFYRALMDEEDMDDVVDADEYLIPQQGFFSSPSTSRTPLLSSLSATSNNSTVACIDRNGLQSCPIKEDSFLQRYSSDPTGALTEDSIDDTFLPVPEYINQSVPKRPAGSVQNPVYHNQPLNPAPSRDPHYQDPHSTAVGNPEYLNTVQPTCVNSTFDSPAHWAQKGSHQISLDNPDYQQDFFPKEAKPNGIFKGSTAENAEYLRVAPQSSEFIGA

Row | SMILES | IC50
1 | O=C(CCCCCNCc1ccc(-c2ccc3ncnc(Nc4ccc(OCc5cccc(F)c5)c(Cl)c4)c3c2)o1)NO | ≤ 0.1 µM
2 | C#Cc1cccc(Nc2ncnc3cc(OCCCCCCC(=O)NO)c(OC)cc23)c1 | ≤ 0.1 µM
3 | C#Cc1cccc(Nc2ncnc3cc(OC)c(OCC(=O)NO)cc23)c1 | ≤ 0.1 µM
4 | O=C(CCCCCOc1ccc2ncnc(Nc3ccc(F)c(Cl)c3)c2c1)NO | ≤ 0.1 µM
5 | C[C@@H](Nc1ncnc2[nH]c(-c3ccc(NC(=O)CCNCCCCCC(=O)NO)cc3)cc12)c1ccccc1 | ≤ 0.1 µM
6 | C#Cc1cccc(Nc2ncnc3cc(OC)c(OCCC(=O)NO)cc23)c1 | ≤ 0.1 µM
7 | COc1cc2ncnc(Nc3ccc(F)c(Cl)c3)c2cc1NC(=O)CCCC(=O)NO | ≤ 0.1 µM
8 | COc1cc2ncnc(Nc3ccc(F)c(Cl)c3)c2cc1CCCCCC(=O)NO | ≤ 0.1 µM
9 | C#Cc1cccc(Nc2ncnc3ccc(OCCCCC(=O)NO)cc23)c1 | ≤ 0.1 µM
10 | COCCOc1cc2c(Nc3ccc(F)c(Cl)c3)ncnc2cc1OCCCCCCC(=O)NO | ≤ 0.1 µM
11 | COCCOc1cc2ncnc(Nc3ccc(F)c(Cl)c3)c2cc1NC(=O)CCCCCCC(=O)NO | ≤ 0.1 µM
12 | COc1cc2ncnc(Nc3ccc(F)c(Cl)c3)c2cc1SCCCCC(=O)NO | ≤ 0.1 µM
13 | COc1cc2ncnc(Nc3ccc(F)c(Cl)c3)c2cc1SCCCCCCC(=O)NO | ≤ 0.1 µM
14 | C#Cc1cccc(Nc2ncnc3cc(OCCOC)c(OCCCCCCC(=O)NO)cc23)c1 | ≤ 0.1 µM
15 | COCCOc1cc2ncnc(Nc3ccc(F)c(Cl)c3)c2cc1OCCCCCCC(=O)NO | ≤ 0.1 µM
16 | C#Cc1cc(Nc2ncnc3cc(OC)c(OCCCCCCC(=O)NO)cc23)ccc1O | ≤ 0.1 µM
17 | O=C(CCOc1ccc2ncnc(Nc3ccc(F)c(Cl)c3)c2c1)NO | ≤ 0.1 µM
18 | C[C@@H](Nc1ncnc2[nH]c(-c3ccc(NC(=O)CCNCCCCCCC(=O)NO)cc3)cc12)c1ccccc1 | ≤ 0.1 µM
19 | C#Cc1cccc(Nc2ncnc3ccc(OCC(=O)NO)cc23)c1 | ≤ 0.1 µM
20 | O=C(CCCCOc1ccc2ncnc(Nc3ccc(F)c(Cl)c3)c2c1)NO | ≤ 0.1 µM

Row | SMILES | IC50
21 | O=C(CCCCCCOc1ccc2ncnc(Nc3ccc(OCc4cccc(F)c4)c(Cl)c3)c2c1)NO | ≤ 0.1 µM
22 | O=C(CCCCCCOc1ccc2ncnc(Nc3ccc(F)c(Cl)c3)c2c1)NO | ≤ 0.1 µM
23 | C#Cc1cccc(Nc2ncnc3cc(OC)c(NC(=O)CCCCC(=O)NO)cc23)c1 | ≤ 0.1 µM
24 | COc1cc2ncnc(Nc3ccc(OCc4cccc(F)c4)c(Cl)c3)c2cc1OCCCCCCC(=O)NO | ≤ 0.1 µM
25 | COCCOc1cc2ncnc(Nc3ccc(F)c(Cl)c3)c2cc1NC(=O)CCCC(=O)NO | ≤ 0.1 µM
26 | C#Cc1cccc(Nc2ncnc3cc(OC)c(OCCCC(=O)NO)cc23)c1 | ≤ 0.1 µM
27 | COc1cc2ncnc(Nc3ccc(F)c(Cl)c3)c2cc1OCCCC(=O)NO | ≤ 0.1 µM
28 | COc1cc2ncnc(Nc3ccc(F)c(Cl)c3)c2cc1OCCCCCC(=O)NO | ≤ 0.1 µM
29 | COc1cc2ncnc(Nc3ccc(F)c(Cl)c3)c2cc1OCCC(=O)NO | ≤ 0.1 µM
30 | COCCOc1cc2ncnc(Nc3ccc(F)c(Cl)c3)c2cc1NC(=O)CCCCC(=O)NO | ≤ 0.1 µM
31 | C#Cc1cccc(Nc2ncnc3cc(OCCCCCCC(=O)NO)c(OCCOC)cc23)c1 | ≤ 0.1 µM
32 | COc1cc2ncnc(Nc3ccc(F)c(Cl)c3)c2cc1OCCCCC(=O)NO | ≤ 0.1 µM
33 | C#Cc1cccc(Nc2ncnc3cc(OC)c(NC(=O)CCCCCCC(=O)NO)cc23)c1 | ≤ 0.1 µM
34 | COc1cc2ncnc(Nc3ccc(F)c(Cl)c3)c2cc1OCC(=O)NO | ≤ 0.1 µM
35 | C#Cc1cccc(Nc2ncnc3cc(OC)c(OCCCCCC(=O)NO)cc23)c1 | ≤ 0.1 µM
36 | COc1cc2ncnc(Nc3ccc(F)c(Cl)c3)c2cc1OCCOc1ccc(C(=O)NO)cc1 | ≤ 0.1 µM
37 | O=C(COc1ccc2ncnc(Nc3ccc(F)c(Cl)c3)c2c1)NO | ≤ 0.1 µM
38 | C#Cc1cccc(Nc2ncnc3cc(OC)c(NC(=O)CCCC(=O)NO)cc23)c1 | ≤ 0.1 µM
39 | COc1cc2ncnc(Nc3ccc(F)c(Cl)c3)c2cc1NC(=O)CCCCCCC(=O)NO | ≤ 0.1 µM

Molecular target: CDK2 (human) (UniProt P24941)
Assay: Enzyme Assay

Row | SMILES | IC50
40 | CC(C)(C)c1cnc(CSc2cnc(NC(=O)CCCCC(=O)NO)s2)o1 | ≤ 0.1 µM
41 | CC(C)(C)c1cnc(CSc2cnc(NC(=O)CCCCCCC(=O)NO)s2)o1 | ≤ 0.1 µM
42 | CC(C)(C)c1cnc(CSc2cnc(NC(=O)CCCCCC(=O)NO)s2)o1 | ≤ 0.1 µM
43 | CC(C)(C)c1cnc(CSc2cnc(NC(=O)Cc3ccc(OCCCCC(=O)NO)cc3)s2)o1 | ≤ 0.1 µM
44 | CC(C)(C)c1cnc(CSc2cnc(NC(=O)Cc3ccc(OCCCC(=O)NO)cc3)s2)o1 | ≤ 0.1 µM
45 | CC(C)(C)c1cnc(CSc2cnc(NC(=O)CCCC(=O)NO)s2)o1 | ≤ 0.1 µM
